# Assay results as given in PMC6218115, “In Vitro Potency and Preclinical Pharmacokinetic Comparison of All-D-Enantiomeric Peptides Developed for the Treatment of Alzheimer’s Disease” (Journal of Alzheimer's Disease, 2018).
# Non-standard residues stand in square brackets, D forms with d. Residues, ends and D or L forms follow the SMILES beside them.
# Tests used:
# Aβ1-42 oligomers = biological target: T1, Aβ1-42 oligomers (Homo sapiens, UniProt P05067); assay: Quantitative determination of interference with Aβ aggregate size distribution (QIAD); type: biochemical; conditions: for Aβ concentrations in fractions 1 and 2 (Aβ monomers): 80 μM Aβ1-42, 20 μM peptide; for Aβ oligomer concentrations in fractions 4 to 6 versus Aβ1-42 alone: 80 μM Aβ1-42 pre-incubated 2.5 h, 20 μM peptide, 40 min, density gradient centrifugation, RP-HPLC UV 214 nm, p≤0.001
# T1 construct: Lyophilized Aβ1 - 42 was dissolved in the respective peptide solution; purchased Isoloid GmbH (recombinant) or Bachem AG (synthetic)
# T1 sequence (P05067 672-713 limits assumed): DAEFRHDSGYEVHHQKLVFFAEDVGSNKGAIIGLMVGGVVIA
# Experimental: As soluble Aβ oligomers are currently expected to be the most neurotoxic Aβ species causing AD, the Aβ1 - 42 oligomer elimination potency of ANK6, tANK6, and cANK6r was investigated by the quantitative determination of interference with Aβ aggregate size distribution (QIAD) similar as described before. In short, lyophilized Aβ1 - 42 was dissolved in sodium phosphate buffer to a final concentration of 80μM and incubated for 2.5 h (21°C, 600 rpm) to achieve an Aβ aggregate distribution including monomers, oligomers, and higher molecular aggregates. Then, sodium phosphate buffer (control), 20μM ANK6, 20μM tANK6, or 20μM cANK6r were added and incubated for further 40 min (21°C, 600 rpm). Afterwards, the samples were loaded on top of a density gradient (5 to 50% (w/v) iodixanol, OptiPrep, Axis-Shield, Norway) and ultra-centrifuged for 3 h (4°C, 259.000× g, Optima TL-100, Beckman Coulter, USA). In the following, 14 fractions (140μL each) were taken from top to bottom, whereby the top fractions (1-2) contained Aβ monomers, the middle fractions (4–6) contained the Aβ oligomers of special interest, and the bottom fractions (11–14) contained high molecular weight co-precipitates. The left-over was diluted in 60μL 6 M guanidine hydrochloride (fraction 15). Finally, the Aβ1 - 42 concentrations in all fractions were determined via analytical RP-HPLC (reversed phase-high performance liquid chromatography) and UV absorbance detection at 214 nm.
# [1] = Pharmacokinetic concentration-time profiles and parameters after i.v. and p.o. administration; type: in vivo, C57Bl/6N mice; conditions: mice; for brain/plasma ratio: 24 h after administration; for Cmax, brain / Cmax, plasma: 3H-label LSC; for Cmax, plasma: 3 mice/time point; for AUC %ID,0 - 1440, plasma: non-compartmental analysis; for F (AUC %ID), oral bioavailability: p.o. 10 mg/kg (ANK6, tANK6) or 15 mg/kg (cANK6r) versus i.v. 3.3 mg/kg, plasma AUC %ID
# Experimental: The pharmacokinetic profiles were investigated in 180 male C57Bl/6N mice aged 13-14 weeks, weighing about 27.4 g in average. Mice were ordered at Charles River (Germany) and housed at least one week under standard housing conditions (12/12 h light-dark cycle, approximately 22°C room temperature and 54% humidity; water and food available ad libitum) in the animal facility of the Forschungszentrum Jülich GmbH before the experiments were carried out. All animal experiments were approved by the Animal Protection Committee of the local government according to the German Protection of Animals Act (LANUV, North-Rhine-Westphalia, Germany, Az.84-02.04.2017.A029).
# To determine the concentration-time profiles of ANK6, tANK6, and cANK6r in murine brain, plasma, liver, kidney, and cerebrospinal fluid (CSF) after i.v. and p.o. administration, mixed solutions of non-labelled and ^3H-labelled peptides were prepared. The administered solutions contained 1 mg/mL (i.v.) or 3 mg/mL (p.o.) of the respective D-peptide including small amounts of ^3H-labelled peptides (0.54μg/mL ^3H-ANK6, 1.79μg/mL ^3H-tANK6, or 0.98μg/mL ^3H-cANK6r). Doses were administered by body weight: i.v. 3.3 mg/kg, ANK6 & tANK6 p.o. 10 mg/kg, cANK6r p.o. 15 mg/kg. Three male C57Bl/6N mice aged 13-14 weeks were investigated per time point whereby individual outliers were excluded from further evaluation. Organs were harvested as follows: i.v. 5, 10, 30, 60, 120, 240, 360, 1080, 1440 min; p.o.: 10, 20, 30, 60, 120, 240, 360, 1080, 1440 min.
# Animals whose CSF was not extracted were anesthetized with isoflurane (cp-pharma, Germany) inhalation approximately 2 min before each organ harvesting time point. Afterwards, blood was taken by cardiac puncture and the heparinized blood was centrifuged (3000 g, 5 min, 4°C) to get plasma. The plasma in the supernatant was separated and 1:1 diluted with PBS. The right brain hemisphere, 200 mg of the big liver lobe, and the right kidney were removed, weighed, and homogenized in 500μL PBS (Precellys Ceramic Kit 1.4 mm, Precellys 24, Bertin technologies SAS, France). 100μL of the diluted plasma, the homogenized brain, liver, or kidney (in triplicates), or 1–5μL (exactly determined) of the extracted CSF (extraction procedure see below, single determination) were mixed with 10 mL scintillation cocktail (Ultima Gold XR, PerkinElmer, USA). The mixture was incubated overnight (100 rpm, room temperature).
# Animals whose CSF was extracted (organ harvesting time points: 60 min, 240 min, 1440 min) were i.p. anesthetized with ketamine/medetomidine approximately 20 min before each sampling time point. When the mouse was in deep narcosis, the cisterna magna was laid free and punctuated with a small capillary to extract about 5μL of CSF as described before. Afterwards, cardiac puncture, organ extractions, and sample preparations were performed as described above.
# Quantification of the amount of ^3H-labelled D-peptides was performed with a LSC and the results (dpm/sample) were converted into mg/mL or % injected dose (% ID)/mL for plasma and for CSF, or in mg/g or % ID/g for brain, liver, and kidney as described before. Total peptide concentrations in the samples were back-calculated from the measured ^3H-labelled peptides’ radioactivity as described before [[20, 25, 26, 29]].
# The determined peptide concentrations were plotted over time to allow for comparison of all peptides’ uptake into brain, plasma, liver, kidney, and CSF. Concentrations at 0 min were set to 0 % ID/mL or 0 % ID/g except for plasma concentrations after i.v. administration. There, concentrations were linearly back-extrapolated based on the first two measured time points (5 min, 10 min).
# To calculate the pharmacokinetic parameters of ANK6, tANK6, and cANK6r for plasma and brain, concentration-time profiles were analyzed. […]
# [2] = i.v. 3.3 mg/kg, back-extrapolated to 0 min
# [3] = p.o. 10 mg/kg (ANK6, tANK6) or 15 mg/kg (cANK6r)
smiles,measurement,setting,value
CC[C@@H](C)[C@@H](NC(=O)[C@@H](CCCNC(=N)N)NC(=O)[C@@H](CCCCN)NC(=O)[C@H](N)CCCNC(=N)N)C(=O)N[C@H](CCCNC(=N)N)C(=O)N[C@H](CC(C)C)C(=O)N[C@@H](C(=O)N[C@@H](C(=O)N[C@H](CCCCN)C(=O)N[C@H](CCCCN)C(=O)N[C@H](CCCCN)C(=O)N[C@H](CCCNC(=N)N)C(=O)N[C@H](CCCNC(=N)N)C(=O)N[C@H](CCCCN)C(=O)N[C@H](CCCNC(=N)N)C(=O)N[C@@H](C(=O)N[C@H](CCCNC(=N)N)C(=O)N[C@H](CC(C)C)C(=O)N[C@@H](C(=O)N[C@@H](C(=O)N[C@H](CCCCN)C(=O)N[C@H](CCCCN)C(=O)N[C@H](CCCCN)C(=O)N[C@H](CCCNC(=N)N)C(N)=O)[C@H](C)O)C(C)C)[C@H](C)CC)[C@H](C)O)C(C)C [tANK6] (H-[dR][dK][dR][dI][dR][dL][dV][dT][dK][dK][dK][dR][dR][dK][dR][dI][dR][dL][dV][dT][dK][dK][dK][dR]-NH2; N-terminus assumed),Aβ concentrations in fractions 1 and 2 (Aβ monomers),Aβ1-42 oligomers,reduced the Aβ monomer concentrations much stronger
same,Aβ oligomer concentrations in fractions 4 to 6 versus Aβ1-42 alone,Aβ1-42 oligomers,significantly lowered
same,peptide concentration detected in the blood,[1]; 4 h after single oral administration of 10 mg/kg,0.01 µM
same,brain/plasma ratio,[1]; i.v.,6.89
same,"AUC %ID,0 - 1440, brain",[1]; i.v. 3.3 mg/kg,56.6 min*% ID/g
same,"CL, terminal plasma clearance",[1]; i.v. 3.3 mg/kg,88.9 mL/min/kg
same,"MRT, plasma",[1]; i.v. 3.3 mg/kg,7 h
same,"t1/2, terminal half-life, plasma",[1]; i.v. 3.3 mg/kg,18 h
same,"tmax, brain",[1]; i.v. 3.3 mg/kg,0.5 h
same,"tmax, plasma",[1]; i.v. 3.3 mg/kg,0 h
same,"λz, terminal elimination rate constant, plasma",[1]; i.v. 3.3 mg/kg,0.00063 min⁻¹
same,"Cmax, brain",[1]; i.v. 3.3 mg/kg,0.06 % ID/g
same,"Cmax, plasma",[1]; [2],0.40 % ID/mL
same,"AUC %ID,0 - 1440, plasma",[1]; i.v. 3.3 mg/kg,26.1 min*% ID/mL
same,"AUC %ID,0 - 1440, brain",[1]; [3],22.5 min*% ID/g
same,"CL, terminal plasma clearance",[1]; [3],113.0 mL/min/kg
same,"MRT, plasma",[1]; [3],11 h
same,"t1/2, terminal half-life, plasma",[1]; [3],31 h
same,"tmax, brain",[1]; [3],18 h
same,"tmax, plasma",[1]; [3],4 h
same,"λz, terminal elimination rate constant, plasma",[1]; [3],0.00038 min⁻¹
same,"F (AUC %ID), oral bioavailability",[1],49.4%
same,"Cmax, brain",[1]; [3],0.02 % ID/g
same,"Cmax, plasma",[1]; [3],0.02 % ID/mL
same,"AUC %ID,0 - 1440, plasma",[1]; [3],12.9 min*% ID/mL
CC[C@@H](C)[C@H]1NC(=O)[C@@H](CCCNC(=N)N)NC(=O)[C@@H](CCCCN)NC(=O)[C@@H](CCCNC(=N)N)NC(=O)[C@@H](CCCNC(=N)N)NC(=O)[C@@H](CCCNC(=N)N)NC(=O)[C@@H](CCCCN)NC(=O)[C@@H](CCCCN)NC(=O)[C@@H](CCCCN)NC(=O)[C@@H]([C@H](C)O)NC(=O)[C@@H](C(C)C)NC(=O)[C@@H](CC(C)C)NC(=O)[C@@H](CCCNC(=N)N)NC1=O [cANK6r] (cyclo([dR][dK][dR][dI][dR][dL][dV][dT][dK][dK][dK][dR][dR])),Aβ concentrations in fractions 1 and 2 (Aβ monomers),Aβ1-42 oligomers,only slightly lowered
same,Aβ oligomer concentrations in fractions 4 to 6 versus Aβ1-42 alone,Aβ1-42 oligomers,significantly lowered
same,brain/plasma ratio,[1]; p.o.,1.17
same,"AUC %ID,0 - 1440, brain",[1]; i.v. 3.3 mg/kg,85.6 min*% ID/g
same,"CL, terminal plasma clearance",[1]; i.v. 3.3 mg/kg,18.4 mL/min/kg
same,"MRT, plasma",[1]; i.v. 3.3 mg/kg,2 h
same,"t1/2, terminal half-life, plasma",[1]; i.v. 3.3 mg/kg,18 h
same,"tmax, brain",[1]; i.v. 3.3 mg/kg,0.083 h
same,"tmax, plasma",[1]; i.v. 3.3 mg/kg,0 h
same,"λz, terminal elimination rate constant, plasma",[1]; i.v. 3.3 mg/kg,0.00064 min⁻¹
same,"Cmax, brain",[1]; i.v. 3.3 mg/kg,0.12 % ID/g
same,"Cmax, plasma",[1]; [2],3.29 % ID/mL
same,"AUC %ID,0 - 1440, plasma",[1]; i.v. 3.3 mg/kg,181.0 min*% ID/mL
same,"AUC %ID,0 - 1440, brain",[1]; [3],19.1 min*% ID/g
same,"CL, terminal plasma clearance",[1]; [3],135.5 mL/min/kg
same,"MRT, plasma",[1]; [3],9 h
same,"t1/2, terminal half-life, plasma",[1]; [3],30 h
same,"tmax, brain",[1]; [3],6 h
same,"tmax, plasma",[1]; [3],1 h
same,"λz, terminal elimination rate constant, plasma",[1]; [3],0.00039 min⁻¹
same,"F (AUC %ID), oral bioavailability",[1],9.9%
same,"Cmax, brain",[1]; [3],0.02 % ID/g
same,"Cmax, plasma",[1]; [3],0.05 % ID/mL
same,"AUC %ID,0 - 1440, plasma",[1]; [3],17.9 min*% ID/mL
